Experimental data from PubChem BioAssay AID2060495 (Molecular Pharmacology Branch, DTP, NCI, 2025).
pIC50: −log10 of the molar value.

System: 521955-158-R2-J5-PDC complex spheroid viability
Test: Anticancer human tumor 521955-158-R2-J5-PDC patient-derived pancreatic carcinoma cell line growth inhibition [GQUAD]
Conditions: for pIC50: curve of first compound; for viability, T/C: stronger effect = lower value
Text: DNA G-quadruplex Stabilizer Agents in Combinations in Complex Spheroids
A high-throughput screen of multi-cell type tumor spheroids was designed to identify active combinations of DNA G-quadruplex stabilizer agents and targeted small molecules. Complex spheroids include a stromal component modeled by human endothelial cells (HUVEC) and fibroblasts modeled by human mesenchymal stem cells (MSCs). The concentration ranges selected for each drug and investigational agent were based upon clinically achievable concentrations if the clinical Cmax of the agent was known.
Compounds. The drugs and investigational agents: pidnarulex (CX-5461; NSC782164), APTO-253 (NSC789042), BRACO-19 (NSC847499), peposertib (NSC802822), ceralasertib (NSC780249), elimusertib (NSC800525), camonsertib (NSC841442), AZD-1390 (NSC803789), olaparib (NSC753686), talazoparib (NSC767125), ART-558 (NSC835418), sotorasib (NSC818433), MRTX-1133 (NSC836407), SN-38 (NSC673596), topotecan (NSC609699), etoposide (NSC141540), doxorubicin (NSC123127), gemcitabine (NSC613327), 5-fluorouracil (NSC19893), paclitaxel (NSC125973), vemurafenib (NSC761431), panobinostat (NSC761190), R-306465 (JNJ-16241199; NSC773264), adavosertib (NSC754352), TP-3654 (NSC805149), carboplatin (NSC241240), KSQ-4279 (NSC840948), and staurosporine (NSC755774) were obtained from the National Cancer Institute (NCI) Developmental Therapeutics Program Chemical Repository (34). The FDA-approved anticancer drug set is available from the NCI Developmental Therapeutics Program. […] The stock solutions were prepared in dimethyl sulfoxide (DMSO, Sigma-Aldrich, St. Louis, MO, cat. D2650) at 800-fold the tested concentration and stored at -70 degrees C prior to their use. All drugs and investigational agents were tested over a range starting from a high concentration at or near the clinical Cmax and decreasing in half-log increments. If the clinical Cmax for an agent had not been determined, the highest concentration tested was 10 microM.
2.3 Cell Culture. All cells were maintained in an incubator at 37 degrees C and 5% CO2 with 95% humidity. The PDC lines were cultured according to standard operating procedures established by the NCI PDMR. All PDCs were thawed and cultured in Matrigel-coated flasks prepared with a working solution of 1X Ham's F-12 nutrient mix, without supplementation (Invitrogen, cat. 11765054), 100 U/mL penicillin-streptomycin (Invitrogen, cat. 15140122), and 2.5% Matrigel (Corning Inc., cat. 354248) for the first three passages. The 857933-349-R-J2-PDC line was cultured in 6C/Colon 1B media, which includes advanced DMEM/F-12 (Thermo Fisher Scientific, cat. 12634028), 10 mM HEPES (Thermo Fisher Scientific, cat. 15630080), 1X GlutaMAX supplement (Thermo Fisher Scientific, cat. 35050061), 0.1 mg/mL primocin (InvivoGen, cat. ant-pm-2), 10% defined fetal bovine serum, heat inactivated (HyClone Laboratories Inc., cat. SH30070.03HI), 50% L-WRN conditioned media (ATCC, cat. CRL-3276), 1.25 mM N-Acetyl-L-cysteine (Sigma-Aldrich, cat. A9165), 10 mM nicotinamide (Sigma-Aldrich, cat. N0636), 1X B-27 supplement (Thermo Fisher Scientific, cat. 17504044), 1X N-2 supplement (Thermo Fisher Scientific, cat. 17502048), 10 microM Y-27632 dihydrochloride (Tocris Bioscience, cat. 1254), and 50 ng/mL human EGF recombinant protein (Thermo Fisher Scientific, cat. PHG0311). The 485176-168-R4-J1-PDC line was cultured in Panc media, which includes all 6C/Colon 1B media components plus 100 ng/mL human FGF-10 (Thermo Fisher Scientific, cat. 100-26), 500 nM SB-431542 (Selleckchem, cat. S1067), and gastrin (Tocris, cat. 3006).
[…]
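Further: spheroids exposed to agents for one week before reading.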
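Wherever viability, T/C is given: 100% = DMSO vehicle control viability.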

Work on Cn1ncnc1[C@H]1c2n[nH]c(=O)c3cc(F)cc(c23)N[C@@H]1c1ccc(F)cc1 + CN(C)c1ccc(Nc2c3ccc(NC(=O)CCN4CCCC4)cc3nc3cc(NC(=O)CCN4CCCC4)ccc23)cc1 yielded a pIC50 (second compound 0.0316 µM) of less than 6.50, a pIC50 (second compound 0.1 µM) of less than 6.50 and a pIC50 (second compound 0.316 µM) of less than 6.50. For the same compound, the pIC50 (second compound 1 µM) was less than 6.50, the pIC50 (second compound 3.16 µM) was less than 6.50 and the pIC50 (second compound 10 µM) was less than 6.50. It also gave a viability, T/C (second compound 0.0316 µM, first compound 0.000999 µM) of 99.1%, a viability, T/C (second compound 0.0316 µM, first compound 0.00316 µM) of 89% and a viability, T/C (second compound 0.0316 µM, first compound 0.00999 µM) of 104%. For the same compound, the viability, T/C (second compound 0.0316 µM, first compound 0.0316 µM) was 91.1%, the viability, T/C (second compound 0.0316 µM, first compound 0.0999 µM) was 90.7% and the viability, T/C (second compound 0.0316 µM, first compound 0.316 µM) was 80%. It also gave a viability, T/C (second compound 0.1 µM, first compound 0.000999 µM) of 92.8%, a viability, T/C (second compound 0.1 µM, first compound 0.00316 µM) of 98.7% and a viability, T/C (second compound 0.1 µM, first compound 0.00999 µM) of 90%. The viability, T/C (second compound 0.1 µM, first compound 0.0316 µM) was 93.9%, the viability, T/C (second compound 0.1 µM, first compound 0.0999 µM) was 92.2% and the viability, T/C (second compound 0.1 µM, first compound 0.316 µM) was 81.4%. The viability, T/C (second compound 0.316 µM, first compound 0.000999 µM) was 97.5%, the viability, T/C (second compound 0.316 µM, first compound 0.00316 µM) was 95.7% and the viability, T/C (second compound 0.316 µM, first compound 0.00999 µM) was 93.3%. For the same compound, the viability, T/C (second compound 0.316 µM, first compound 0.0316 µM) was 90.6%, the viability, T/C (second compound 0.316 µM, first compound 0.0999 µM) was 88.2% and the viability, T/C (second compound 0.316 µM, first compound 0.316 µM) was 83.7%. It also gave a viability, T/C (second compound 1 µM, first compound 0.000999 µM) of 99.6%, a viability, T/C (second compound 1 µM, first compound 0.00316 µM) of 90.2% and a viability, T/C (second compound 1 µM, first compound 0.00999 µM) of 92.1%. The viability, T/C (second compound 1 µM, first compound 0.0316 µM) was 97%, the viability, T/C (second compound 1 µM, first compound 0.0999 µM) was 89.2% and the viability, T/C (second compound 1 µM, first compound 0.316 µM) was 73.7%. It also gave a viability, T/C (second compound 3.16 µM, first compound 0.000999 µM) of 87.4%, a viability, T/C (second compound 3.16 µM, first compound 0.00316 µM) of 77.9% and a viability, T/C (second compound 3.16 µM, first compound 0.00999 µM) of 76.4%. The viability, T/C (second compound 3.16 µM, first compound 0.0316 µM) was 67.5%, the viability, T/C (second compound 3.16 µM, first compound 0.0999 µM) was 74.7% and the viability, T/C (second compound 3.16 µM, first compound 0.316 µM) was 66.3%. The viability, T/C (second compound 10 µM, first compound 0.000999 µM) was 68.1%, the viability, T/C (second compound 10 µM, first compound 0.00316 µM) was 70.6% and the viability, T/C (second compound 10 µM, first compound 0.00999 µM) was 70.7%. The viability, T/C (second compound 10 µM, first compound 0.0316 µM) was 60.5%, the viability, T/C (second compound 10 µM, first compound 0.0999 µM) was 61.4% and the viability, T/C (second compound 10 µM, first compound 0.316 µM) was 59.4%.
